From patent US8865675B2, “Compositions and methods for silencing apolipoprotein B” (Protiva Biotherapeutics, Inc., priority 2010, dated 2014) come the findings set out here.

For one data set, the system named is liver ApoB mRNA. Briefly: Liver ApoB mRNA knockdown after IV SNALP administration, branched DNA (QuantiGene) assay relative to GAPDH. The data set is classed as in vivo, Balb/c mice. The conditions noted are these: for ApoB silencing activity compared to SNALP containing C2K when administered at the same dose: 0.033 or 0.05 mg/kg IV, 48 h (Table 6); for KD50 compared to SNALP containing the C2K benchmark cationic lipid: 48 h (FIG. 2, FIG. 3); for ApoB knockdown relative to PBS control (%): 1:57 SNALP with ApoB-10164 siRNA, ApoB:GAPD, 48 h, n = 3. Here is the method:
For dose response studies, SNALP formulations were administered by IV injection at 0.01 mg/kg, 0.033 mg/kg, or 0.1 mg/kg into female Balb/c mice (n=3 per group). Liver ApoB mRNA levels were evaluated at 48 hours after SNALP administration by a branched DNA assay (QuantiGene assay) to assess ApoB mRNA relative to the housekeeping gene GAPDH.
Each SNALP formulation (6:1 L:D) was administered by intravenous (IV) injection at 0.1 mg/kg into female Balb/c mice (n=3 per group). Liver ApoB mRNA levels were evaluated at 48 hours after SNALP administration by a branched DNA assay (QuantiGene assay) to assess ApoB mRNA relative to the housekeeping gene GAPDH.
SNALP formulations were administered by IV injection at 0.05 mg/kg into female Balb/c mice (n=3 per group). Liver ApoB mRNA levels were evaluated at 48 hours after SNALP administration by a branched DNA assay (QuantiGene assay) to assess ApoB mRNA relative to the housekeeping gene GAPDH.
For these dose response studies, SNALP formulations were administered by IV injection at 0.05, 0.10, or 0.25 mg/kg for DLinDMA and at 0.01, 0.025, or 0.05 mg/kg for C2K or MC3 into female Balb/c mice (n=4 per group). Liver ApoB mRNA levels were evaluated at 48 hours after SNALP administration (Error bars=SD).
SNALP formulations were administered by IV injection at 0.033 mg/kg or at 0.05 mg/kg into Balb/c mice (n=3 per group). Liver ApoB mRNA levels were evaluated at 48 hours after SNALP administration by a branched DNA assay (QuantiGene assay) to assess ApoB mRNA relative to the housekeeping gene GAPDH.

A short description of data set [1]: Tolerability assessments of SNALP in mice (liver enzymes, body weight, neutrophil to lymphocyte ratio etc.). In kind it is in vivo.
Setting [2] is: 1:57 SNALP, 0.01, 0.033 or 0.1 mg/kg IV, female Balb/c mice, 48 h (FIG. 1, FIG. 3).
The mark [3] stands for this setting: 1:57 SNALP, 0.01, 0.033 or 0.1 mg/kg IV, female Balb/c mice.

Consider “siApoB-10: APOB siRNA of sense strand SEQ ID NO: 4 and antisense strand SEQ ID NO: 11 with 2′OMe nucleotides (sense AGNGNCANCACACNNAANACC; antisense UAUUCAGUGUGAUGACACUUG; 2'OMe nucleotides, chemistry not fully specified)”, for which, in the data set on liver ApoB mRNA (modifications increased from 7 in siApoB-8 to 13 in siApoB-10, 1:57 SNALP, Balb/c mice, 48 h (FIG. 6)), the “silencing activity of more highly 2′OMe-modified APOB siRNA relative to siApoB-8” value is given as “does not decrease activity”.

Turning to `CCCCC/C=C\C/C=C\CCCCCCCCC(CCCCCCCC/C=C\C/C=C\CCCCC)OCCCCN(C)C` [Compound 15, MC4 Ether], the “ApoB silencing activity compared to SNALP containing C2K when administered at the same dose” value in the data set on liver ApoB mRNA (1:57 SNALP, Balb/c mice) is “unexpectedly improved ApoB silencing activity”.

Consider `CCCCC/C=C\C/C=C\C/C=C\CCCCCC(CCCCC/C=C\C/C=C\C/C=C\CCCCC)OC(=O)CCCN(C)C` [Compound 8, γ-LenMC3], for which the “ApoB silencing activity compared to SNALP containing the C2K benchmark cationic lipid” value in the data set on liver ApoB mRNA (setting [2]) is “improved ApoB silencing activity”. In the data set on liver ApoB mRNA (setting [3]), the “KD50 compared to SNALP containing the C2K benchmark cationic lipid” value is recorded as “substantially lower KD50 values”. In addition, in the data set on liver ApoB mRNA (1:57 SNALP, Balb/c mice), the “ApoB silencing activity compared to SNALP containing C2K when administered at the same dose” value was “unexpectedly improved ApoB silencing activity”.

Turning to `CC/C=C\C/C=C\C/C=C\CCCCCCCCC(CCCCCCCC/C=C\C/C=C\C/C=C\CC)OCCCCN(C)C` [Compound 35, 4-((3Z,6Z,9Z,28Z,31Z,34Z)-heptatriaconta-3,6,9,28,31,34-hexaen-19-yloxy)-N,N-dimethylbutan-1-amine], the “ApoB silencing activity compared to SNALP containing C2K when administered at the same dose” value in the data set with liver ApoB mRNA (1:57 SNALP, Balb/c mice) is reported as “unexpectedly improved ApoB silencing activity”.

`CC/C=C\C/C=C\C/C=C\CCCCCCCCC(CCCCCCCC/C=C\C/C=C\C/C=C\CC)OC(=O)CCCN(C)C` [Compound 4, LenMC3]: the “ApoB silencing activity compared to SNALP containing the C2K benchmark cationic lipid” value with liver ApoB mRNA (setting [2]) is “improved ApoB silencing activity”. Moreover, the “KD50 compared to SNALP containing the C2K benchmark cationic lipid” value with liver ApoB mRNA (setting [3]) is reported as “substantially lower KD50 values”. Besides, in the data set with liver ApoB mRNA (1:57 SNALP, Balb/c mice), the “ApoB silencing activity compared to SNALP containing C2K when administered at the same dose” value is recorded as “unexpectedly improved ApoB silencing activity”.

`CCCCC/C=C\C/C=C\CCCCCCCCCC(CCCCCCC/C=C\C/C=C\CCCCC)OC(=O)N(CCCCCC)CCCN(C)C` (stereo not shown) [Compound 27, (6Z,9Z,28Z,31Z)-heptatriaconta-6,9,28,31-tetraen-18-yl 3-(dimethylamino)propyl(hexyl)carbamate]: the “ApoB silencing activity compared to SNALP containing C2K when administered at the same dose” value in the data set with liver ApoB mRNA (1:57 SNALP, Balb/c mice) is “unexpectedly improved ApoB silencing activity”.

With “(6Z,9Z,28Z,31Z)-heptatriaconta-6,9,28,31-tetraen-18-yl 2-(dimethylamino)ethyl(ethyl)carbamate [Compound 29]”, in the data set with liver ApoB mRNA (0.05 mg/kg IV, Balb/c mice), the “ApoB knockdown relative to PBS control (%)” value was −59%.

`CCCCC/C=C\C/C=C\CCCCCCCCC(CCCCCCCC/C=C\C/C=C\CCCCC)OC(=O)CCCN(C)C` [Compound 1, (6Z,9Z,28Z,31Z)-heptatriaconta-6,9,28,31-tetraen-19-yl 4-(dimethylamino)butanoate]: the “potency versus the corresponding DLinDMA or C2K SNALP formulations, comparison of KD50 values” with liver ApoB mRNA (1:57 SNALP containing siApoB-8 or siApoB-10, female Balb/c mice, 48 h (FIG. 6)) was “more potent”. In addition, the “ApoB silencing activity compared to SNALP containing the C2K benchmark cationic lipid” value with liver ApoB mRNA (setting [2]) was “improved ApoB silencing activity”. Moreover, the “KD50 compared to SNALP containing the C2K benchmark cationic lipid” value with liver ApoB mRNA (setting [3]) is recorded as “substantially lower KD50 values”. In the data set on liver ApoB mRNA (1:57 SNALP, Balb/c mice), the “ApoB silencing activity compared to SNALP containing C2K when administered at the same dose” value is listed as “unexpectedly improved ApoB silencing activity”. The “potency in silencing ApoB expression in vivo compared to SNALP containing DLin-C2K-DMA (C2K) or DLinDMA” value in the data set on liver ApoB mRNA (1:57 lipid particle) is given as “unexpectedly more potent”.

For the compound `CCC1CC1CC1CC1CC1CC1CCCCCCCCC1(CCCCCCCCC2CC2CC2CC2CC2CC2CC)OCC(CCN(C)C)O1` (stereo not shown) [Compound 46, CP-DLen-C2K-DMA], in the data set on liver ApoB mRNA (1:57 SNALP, 0.01, 0.033 or 0.1 mg/kg IV, female Balb/c mice, 48 h (FIG. 3)), the “potency in silencing ApoB mRNA expression” value is given as “considerable potency”. In data set [1] (mouse, in vivo), the “body weight loss compared to mice administered SNALP containing C2K” value was “less body weight loss”, the “increase in liver enzyme levels compared to mice administered SNALP containing C2K” value is reported as “lower increase in liver enzyme levels” and the “neutrophil to lymphocyte ratio compared to mice administered SNALP containing C2K” value is listed as “more favorable neutrophil to lymphocyte ratio”. Besides, in data set [1] (various tolerability assessments in vivo), the “toxicity profile compared to SNALP containing C2K” value was “unexpectedly more favorable toxicity profile”.

Take `CCCCC/C=C\C/C=C\CCCCCCCCC(CCCCCCCC/C=C\C/C=C\CCCCC)OC(=O)N(C)CCCN(C)C` [Compound 10, MC3MC]: in the data set with liver ApoB mRNA (0.033 mg/kg IV, Balb/c mice), the “ApoB knockdown relative to PBS control (%)” value is on record as −50%.

Regarding `CC/C=C\CCCN(CCCN(C)C)C(=O)OC(CCCCCCC/C=C\C/C=C\CCCCC)CCCCCCCCC/C=C\C/C=C\CCCCC` (stereo not shown) [Compound 28, (6Z,9Z,28Z,31Z)-heptatriaconta-6,9,28,31-tetraen-18-yl 3-(dimethylamino)propyl((Z)-hept-4-enyl)carbamate], the “ApoB silencing activity compared to SNALP containing C2K when administered at the same dose” value in the data set on liver ApoB mRNA (1:57 SNALP, Balb/c mice) is recorded as “unexpectedly improved ApoB silencing activity”.

For the compound `CCCCC/C=C\C/C=C\CCCCCCCCC(CCCCCCCC/C=C\C/C=C\CCCCC)OCCCN(C)C` [Compound 13, 3-((6Z,9Z,28Z,31Z)-heptatriaconta-6,9,28,31-tetraen-19-yloxy)-N,N-dimethylpropan-1-amine], in the data set on liver ApoB mRNA (1:57 SNALP, 0.05 mg/kg IV, female Balb/c mice, 48 h (FIG. 5)), the “ApoB silencing activity compared to SNALP containing the C2K benchmark cationic lipid” value is listed as “unexpectedly improved ApoB silencing activity”. Besides, in the data set with liver ApoB mRNA (1:57 SNALP, Balb/c mice), the “ApoB silencing activity compared to SNALP containing C2K when administered at the same dose” value is on record as “unexpectedly improved ApoB silencing activity”.
